Like-named read-outs stand apart in the source and are kept apart here.
Assays:
[1] = system: AMN human patient-derived primary fibroblasts; assay: Hexacosanoic acid (VLCFA) level in AMN patient-derived fibroblasts, LC-MS; type: cell-based; conditions: AMN patient-derived fibroblasts
Method: In order to compare the efficacy of PXL770 and metformin to lower very long chain fatty acids (VLCFA) in vitro, the study focuses on the level assessment of the hexacosanoic acid, which is the most prevalent VLCFA, in healthy control cells and in AMN human patient-derived primary fibroblasts. The cell lines were obtained from Coriell Cell Repositories. Fibroblasts were cultured in DMEM with 15% FBS. The cultures were split in 1:5 ratio. Fibroblasts from healthy patients were used as control. All treatments were in complete media containing fetal bovine serum (FBS, 15%). All cultured cells were maintained at 37° C. in 5% CO2.
VLCFA content was then measured as follows. Samples are adjusted to a final volume of 0.5-1 ml with LC-MS grade water and spiked with 10 ng of Lignoceric acid-d4 as an internal standard. The sample is acidified to pH 3-4 with dilute hydrochloric acid and extracted with isooctane-ethyl acetate (9:1) three times with equal volume. The extract is dried under nitrogen and the residue is reconstituted in methanol-water-ammonium acetate (75:25:10 mM).
Total fatty acids: After preparing the samples with internal standard as described above for free fatty acids, aqueous sodium hydroxide is added to a final concentration of 1 M. The mixture is incubated at 37° C. in dark under nitrogen for 3 h. The samples are then acidified, extracted, and reconstituted as described above.
LC-MS analysis of fatty acids: The reconstituted fatty acid extracts are subjected to HPLC on Targa C8 column (2×10 mm) using methanol-aqueous ammonium acetate (10 mM) solvent mixture. The column is eluted with a gradient of methanol (75 to 90%) over 8 min at a flow rate of 0.25 ml/min. The column eluent is directly introduced to mass analyzer (QTRAP5500) and monitored for fatty acids using published pseudo MRM method. Under these conditions, the VLCFA elute between 5 and 8 min. Each fatty acid is quantitated against the added internal standard.
The study planned different groups of patients. First, the evolution of hexacosanoic acid in fibroblasts is monitored in healthy control cells and in AMN human patient-derived primary fibroblasts; and in a second time a treatment of PXL770 was assigned to AMN human-derived primary fibroblasts in culture at different doses (PXL770: 0.1, 0.5, 1, 2, 3.5 and 5 μM; metformin: 100, 200, 300 and 400 μM) for one week and the level of hexacosanoic acid was measured.
The experiment described in Example 3 was reproduced with various thienopyridone compounds, namely: • PXL770: potassium 2-chloro-3-(5-hydroxytetralin-6-yl)-6-oxo-5-phenyl-7H-thieno[2,3-b]pyridin-4-olate • PXL700: 2-chloro-4-hydroxy-3-indan-5-yl-5-(3-pyridyl)-7H-thieno[2,3-b]pyridin-6-one • PXL702: 2-chloro-4-hydroxy-3-(4-hydroxyindan-5-yl)-5-phenyl-7H-thieno[2,3-b]pyridin-6-one • PXL695: 2-chloro-5-(3-fluorophenyl)-4-hydroxy-3-(4-hydroxyindan-5-yl)-7H-thieno[2,3-b]pyridin-6-one, • each tested at concentrations from 0.1 to 5 μM.
A one-way ANOVA with Dunnett's multiple comparison test was performed to assess the effect of PXL770 on brain's VLCFAs (**** p<0.0001, *** p<0.001). A Kruskal-Wallis test with Dunn's multiple comparison test was performed to assess the effect of PXL770 on plasma's VLCFAs (**** p<0.0001, […]).

[2] = system: AMN human patient-derived primary lymphocytes; conditions: AMN patient's derived lymphocytes, 5 mM, 7 days of treatment; FIG. 9; cited from earlier work
ABCD2 [3] = conditions: AMN patient's derived fibroblasts, 5 mM; FIG. 11; cited from earlier work
ABCD2 [4] = conditions: ABCD1-KO mice glial cells, 100 μM; FIG. 12; cited from earlier work
[5] = system: ALD patient-derived lymphocytes; conditions: ALD patient's derived lymphocytes, 5 mM, 7 days of treatment; FIG. 9; cited from earlier work
ABCD2 [6] = conditions: ALD patient's derived fibroblasts, 5 mM; FIG. 11; cited from earlier work
cultured fibroblasts = conditions: cited from earlier work
[7] = concentrations from 0.1 to 5 μM, FIG. 14

## O=c1[nH]c2sc(Cl)c(-c3ccc4c(c3O)CCC4)c2c(O)c1-c1cccc(F)c1 [PXL695, 2-chloro-5-(3-fluorophenyl)-4-hydroxy-3-(4-hydroxyindan-5-yl)-7H-thieno[2,3-b]pyridin-6-one]
[1]; [7]
  VLCFA levels: comparable decrease

## O=c1[nH]c2sc(Cl)c(-c3ccc4c(c3O)CCC4)c2c(O)c1-c1ccccc1 [PXL702, 2-chloro-4-hydroxy-3-(4-hydroxyindan-5-yl)-5-phenyl-7H-thieno[2,3-b]pyridin-6-one]
[1]; [7]
  VLCFA levels: comparable decrease

## CN(C)C(=N)N=C(N)N [metformin]
[1]; 400 μM, compared with thienopyridones at 5 μM, FIG. 15
  VLCFA levels: no or a very limited effect
[2]
  decrease of VLCFA content: −29%
ABCD2 [3]
  ABCD2 protein expression: only slightly increased
ABCD2 [4]
  ABCD2 protein levels: limited increase
[5]
  decrease of VLCFA content: −42%
ABCD2 [6]
  ABCD2 protein expression: only slightly increased
Cultured fibroblasts
  dose at which efficacy is observed: at least 100 μM

## O=c1[nH]c2sc(Cl)c(-c3ccc4c(c3)CCC4)c2c(O)c1-c1cccnc1 [PXL700, 2-chloro-4-hydroxy-3-indan-5-yl-5-(3-pyridyl)-7H-thieno[2,3-b]pyridin-6-one, reference compound]
[1]; [7]
  VLCFA levels: no or a very limited effect

Source: patent US11850238B2, “Use of a thienopyridone derivative in the treatment of adrenoleukodystrophy or adrenomyeloneuropathy” (POXEL, priority 2020, dated 2023)
